Where two headings read alike, the source gives them in different places. Numbered stars: 1 amine (or outer) side, 2 acyl side, 3 side chain; on linkers, the order of the positions; unused ones are H or OH. Bridge positions count the residues as written; N and C are the ends. Square brackets hold non-standard residues; d marks the D form. Peptide text beside a SMILES is read from it. I, II: the chains in the order shown. Actinocin(9to1) = Cc1c2oc3c(C)ccc(C(=O)[*:1])c3nc-2c(C(=O)[*:2])c(N)c1=O; NMeV = CN[C@H](C(=O)O)C(C)C; Sar = CNCC(=O)O

Assay [1] addresses T1, RNase L (Homo sapiens, UniProt Q05823).
T1 sequence (Q05823 1-741): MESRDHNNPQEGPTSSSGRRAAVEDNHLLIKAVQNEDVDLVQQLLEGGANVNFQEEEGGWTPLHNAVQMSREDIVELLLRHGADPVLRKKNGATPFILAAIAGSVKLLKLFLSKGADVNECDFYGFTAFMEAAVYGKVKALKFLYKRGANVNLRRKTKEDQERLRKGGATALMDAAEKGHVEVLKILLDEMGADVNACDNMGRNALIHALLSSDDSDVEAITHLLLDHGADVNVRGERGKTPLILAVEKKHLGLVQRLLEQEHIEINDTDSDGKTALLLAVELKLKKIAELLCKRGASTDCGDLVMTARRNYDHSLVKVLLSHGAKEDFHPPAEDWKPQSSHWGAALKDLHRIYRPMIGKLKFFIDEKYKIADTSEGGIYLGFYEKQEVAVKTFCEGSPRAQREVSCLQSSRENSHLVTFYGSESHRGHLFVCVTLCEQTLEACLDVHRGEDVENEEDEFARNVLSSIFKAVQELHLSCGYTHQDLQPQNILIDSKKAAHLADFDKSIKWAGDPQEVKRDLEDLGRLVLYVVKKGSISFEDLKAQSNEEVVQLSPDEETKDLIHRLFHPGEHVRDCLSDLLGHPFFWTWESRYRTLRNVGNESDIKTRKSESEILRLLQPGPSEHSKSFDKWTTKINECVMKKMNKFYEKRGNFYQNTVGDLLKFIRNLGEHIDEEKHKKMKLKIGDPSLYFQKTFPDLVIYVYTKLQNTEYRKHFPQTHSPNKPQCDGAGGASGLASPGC
As to conditions: cited from earlier work.

Assay [2] deals with A549 cells. The experiment in a line: Nascent protein synthesis by puromycin pulse labeling. It counts as cell-based, human. As to the method:
Ribopuromycilation and ^35S labeling to monitor nascent translation: To generate puromycin-tagged nascent peptides, human cells were treated with 0.1-1 μg/mL of poly-IC for times specified on the figures, after which the growth media was supplemented with 10 μg/mL puromycin (Invitrogen). Puromycin pulse lasted for 5 min. Cells were trypsinized and harvested in NuPAGE LDS sample buffer for western blot analyses. Proteins were separated by 10% BisTris PAGE (NuPAGE), and transferred on PVDF membranes (Life Technologies). The membrane was stained with Ponceau to normalize for sample loading, then washed and blocked with 5% non-fat dry milk in TBST buffer. The membranes were probed with 1:1000 mouse anti-puromycin antibody (EMD Millipore) that binds to de novo synthesized proteins, followed by horseradish peroxidase-conjugated goat anti-mouse secondary antibody (1:10,000, Jackson ImmunoResearch). Metabolic labeling with ^35S was conducted using the following procedure. After cell treatment with poly-IC, media was changed to methionine-free RPMI+10% FBS supplemented with 11 μCi EASY TAG™ EXPRESS35S Protein Labeling Mix (Perkin Elmer). Cellular proteins were resolved by 10% BisTris PAGE (NuPAGE) and analyzed by phosphorimaging.

In assay [3] the test system is A549 cells. Kind of assay: Live cell 2-5A measurements in A549 cells stably expressing FLAG-V6 biosensor. In kind it is cell-based, human. As to conditions: pre-treatment before poly-IC.
Protocol: Live cell 2-5A measurements in stable cell lines expressing V6 or V6-Y312A reporters: A549 or HeLa cells stably expressing V6 or V6-Y312A control reporters were seeded at a density of 1·10^4 /well on TC-treated, clear flat bottom white 96-well plates. Before transfection with poly-IC, cells were pre-treated with 100 μM D-luciferin ethyl ester (1% DMSO) (f/c) (Marker Gene Technologies). After one hour of substrate pre-treatment, a poly-IC/lipofectamine complex (1 μg/mL Poly-IC+0.5 μL Lipofectamine 2000 in a final volume of 100 μL) was added to the cells along with a second addition of 100 μM D-luciferin and HEPES (pH 7.5; 20 mM f/c). Dilutions of poly-IC were made by diluting the poly-IC/lipofectamine complexes. Luminescence measurements were taken in repeat-mode using plate reader at time intervals shown on the figures. After three hours, fresh D-luciferin ethyl ester (100 μM) was re-supplied at every hour to ensure excess reporter substrate. Luminescence acquisition time was one minute per well. For IFN-β pre-treatment, a dose of 1000 U/mL (f/c) was used 24 hours before poly-IC treatment.
Assay [4] relates to A549 cells. The experiment in a line: Secreted IFN detection by qPCR in conditioned media. It counts as cell-based, human. The method, then:
qRT-PCR analysis: Cells were harvested in 350 μL RLT buffer (Qiagen) and RNA was purified according to the RNeasy protocol (Qiagen). cDNA was prepared using oligo-dT and a High Capacity RNA to cDNA kit (Applied Biosystems). qPCR was performed using the Power SYBR green PCR mix in a 96 well format on StepOnePlus qPCR instrument (Life Technologies). qPCR primers used in this work were from Integrated DNA Technologies and are available via the manufacturer if not specifically recited in the Table below.
Secreted IFN detection by qPCR in conditioned media: A549 WT and RNase L knock out (KO) cells in 12-well plates were transfected with 1 μg/mL poly-IC and lipofectamine 2000 for 0.5, 2 or 6 hours. At the end of the time course, cells were washed four times with 1 mL of growth medium (RPMI+10% FBS) to remove residual poly IC. After the washes, fresh 1 mL medium was added and the cells were kept in fresh media for one hour to allow for protein secretion. Treatments of naive cells with conditioned media were done in a separate 12-well plate and using cells seeded 1 day before the analysis. Naïve cell media was replaced with 1 mL of the conditioned medium from above. Cells were grown in the conditioned media for 16 hours and harvested in 300 μL RLT (Qiagen). For pulse-chase experiments in FIG. 9C, 10 μM anisomycin was added 3 hours after poly-IC addition. Anisomycin level was additionally maintained during the last hour allocated for IFN secretion into fresh media.
(In general: Real-time PCR tracks product formation cycle by cycle.)

Assay [5] has as its system HeLa cells. The experiment in a line: Reporter assay in live cells transfected with V6 or Y312A V6 constructs. In kind it is cell-based, human. As to the method: Reporter assay in live cells: NLS and NES tag sequences cloned in the reporter immediately following the FLAG tag were […] (SEQ ID NO: 4) and […] (SEQ ID NO: 5), respectively. […] These 96 well plates were clear bottom and white for optimum luminescence readings. […] Luminescence acquisition time: 1 minute/well.
Background: Reporter assays use an easily measured gene product as a stand-in for the process of interest.

Assay [6] deals with HeLa cells. As to conditions: stable monoclonal HeLa reporter cells.
Protocol: In an additional experiment, HeLa cells were stably transduced with a lentiviral construct containing the reporter. A monoclonal population of reporter expressing cells was then selected by limiting serial dilution. For reporter assay, these monoclonal cells were seeded at a cell density of 2×10^5 cells per well on 96 well plates. After the cells adhered to the plates (in approximately 6 hours), the cells were pre-treated with 100 uM D-luciferin ethyl ester (1% DMSO) (f/c). After one hour of substrate pre-treatment, poly IC-Lipofectamine complexes were added to the cells along with a second addition of 100 uM D-luciferin substrate. Luminescence measurements were taken on Repeated mode in the plate reader: every 15 minutes for the course of three hours. Luminescence acquisition time: 1 minute/well.
Assay [7] concerns HeLa cells. The settings on record: poly IC 6 hours, <3 kDa flow-through, V6 reporter in vitro.
Protocol: In vitro Luminescence assays: The luminescence reactions contained 20 mM Hepes (pH7.4), 100 mM NaCl, 5 mM MgCl2, 5% (vol/vol) glycerol, 1 mM DTT, 3 mM ATP, 250 uM Coenzyme A hydrate (Sigma Aldrich). After adding specified concentrations of reporter protein and 2-5A (p2-5A3, pA3), D-luciferin, Potassium salt (Gold Biotechnology) was added at a final concentration of 400 uM. The reactions were allowed to stabilize for 2 minutes and immediately after luminescence measurements were taken on a plate reader (Berthold Technologies). Acquisition time for the reaction was set to be 10 seconds.
2-5A extraction: HeLa cells treated for 6 hours with 1 ug/ml polyIC were lysed with RIPA (Thermo Fisher Scientific) buffer along with 0.5 mM PMSF protease inhibitor. The lysate was spun down at 12000 g for 10 minutes at 4° C. The supernatant was passed through a 3 KDa centrifugal filter to collect small nucleic acids. An equivalent amount of RNA from mock or polyIC treated sample was added to the luminescence assay.

In the case of 2′-5′-linked oligoadenylates [2-5A], the “affinity for latent RNase L” value in assay [1] was “sub-nanomolar”. Further, the “attenuation of basal cell-wide translation” value in assay [2] (2-5A activated RNase L) is “more than 1,000 fold”.
Regarding `Cc1c2oc3c(C)ccc(C(=O)N[C@@H]4C(=O)N[C@H](C(C)C)C(=O)N5CCC[C@H]5C(=O)N(C)CC(=O)N(C)[C@@H](C(C)C)C(=O)O[C@@H]4C)c3nc-2c(C(=O)N[C@@H]2C(=O)N[C@H](C(C)C)C(=O)N3CCC[C@H]3C(=O)N(C)CC(=O)N(C)[C@@H](C(C)C)C(=O)O[C@@H]2C)c(N)c1=O` [Actinomycin D] (I: T[dV]P[Sar][NMeV] / II: T[dV]P[Sar][NMeV]; ester I:1-I:C, II:1-II:C; linker I:N-II:N via Actinocin(9to1)), the “OAS/RNase L activation after pre-treatment with transcription inhibitor” value in assay [3] is “not inhibited”.
For the molecule `COc1ccc(C[C@H]2NC[C@H](O)[C@H]2OC(C)=O)cc1` [anisomycin], the “IFN production (IFN activity in the media)” value in assay [4] (10 μM anisomycin added 3 hours after poly-IC, before the IFN response) is “blocked IFN production”. Also, in assay [4] (naïve cells, control experiment), the “effect on ISG mRNAs” value was “mild stimulatory effect”.
Turning to poly-Inosine/poly-Cytidine [poly IC], the “2-5A build-up, fold, poly IC treated vs untreated cells” value in assay [5] (30 minutes) was 2.4 fold. Also, the results for the “maximum fold change of reporter” value in assay [5] (3 hours post poly IC treatment) and in assay [6] (3.5 hours after poly IC treatment) were 30 fold and 28 fold, respectively. The “2-5A build-up, fold change with poly IC vs without poly IC” value in assay [6] (30 mins) is 3.7 fold. In addition, in assay [4] (media of poly I:C-treated WT and RNase L−/− cells, time points beyond translational arrest), the “ISG induction by conditioned media” value is recorded as “two orders of magnitude”. Also, the global translation entry in assay [2] (WT A549 cells, before ISG induction) is “halted global translation”. The “stimulation of the reporter by nucleic acids from poly IC treated vs mock treated cells” value in assay [7] is “roughly 8 fold”.

The record behind these values is patent US11667949B2, “Reporter construct and biosensor for interferon second messenger 2-5A” (The Trustees of Princeton University, priority 2018, dated 2023).
